Test system: 885512-296-R-J2-PDC complex spheroid growth, % test/control
Experiment: Anticancer human tumor 885512-296-R-J2-PDC patient-derived breast carcinoma cell line growth inhibition [AhR]
Conditions: for IC50: curve of first compound; for viability, T/C: stronger effect = lower value
Procedure, shortened: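 Complex tumor spheroids co-cultured with HUVEC and human MSC stroma; AhR antagonists tested in combination with standard-of-care and investigational agents. Top concentration at or near clinical Cmax (else 10 microM), half-log dilutions; growth expressed as percent test/control.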

[1] = second compound 0.1 µM, first compound 0.00316 µM
[2] = second compound 0.1 µM, first compound 0.01 µM
[3] = second compound 0.1 µM, first compound 0.0316 µM
[4] = second compound 0.1 µM, first compound 0.1 µM
[5] = second compound 0.316 µM, first compound 0.00316 µM
[6] = second compound 0.316 µM, first compound 0.01 µM
[7] = second compound 0.316 µM, first compound 0.0316 µM
[8] = second compound 0.316 µM, first compound 0.1 µM
[9] = second compound 1 µM, first compound 0.00316 µM
[10] = second compound 1 µM, first compound 0.01 µM
[11] = second compound 1 µM, first compound 0.0316 µM
[12] = second compound 1 µM, first compound 0.1 µM
[13] = second compound 3.16 µM, first compound 0.00316 µM
[14] = second compound 3.16 µM, first compound 0.01 µM
[15] = second compound 3.16 µM, first compound 0.0316 µM
[16] = second compound 3.16 µM, first compound 0.1 µM
[17] = second compound 10 µM, first compound 0.00316 µM
[18] = second compound 10 µM, first compound 0.01 µM
[19] = second compound 10 µM, first compound 0.0316 µM
[20] = second compound 10 µM, first compound 0.1 µM
[21] = second compound 0.1 µM, first compound 0.316 µM
[22] = second compound 0.1 µM, first compound 1 µM
[23] = second compound 0.1 µM, first compound 3.16 µM
[24] = second compound 0.1 µM, first compound 10 µM
[25] = second compound 0.316 µM, first compound 0.316 µM
[26] = second compound 0.316 µM, first compound 1 µM
[27] = second compound 0.316 µM, first compound 3.16 µM
[28] = second compound 0.316 µM, first compound 10 µM
[29] = second compound 1 µM, first compound 0.316 µM
[30] = second compound 1 µM, first compound 1 µM
[31] = second compound 1 µM, first compound 3.16 µM
[32] = second compound 1 µM, first compound 10 µM
[33] = second compound 3.16 µM, first compound 0.316 µM
[34] = second compound 3.16 µM, first compound 1 µM
[35] = second compound 3.16 µM, first compound 3.16 µM
[36] = second compound 3.16 µM, first compound 10 µM
[37] = second compound 10 µM, first compound 0.316 µM
[38] = second compound 10 µM, first compound 1 µM
[39] = second compound 10 µM, first compound 3.16 µM
[40] = second compound 10 µM, first compound 10 µM
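Note: spheroids exposed to compounds for seven days.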

| SMILES | IC50 (second compound 0.1 µM) | IC50 (second compound 0.316 µM) | IC50 (second compound 1 µM) | IC50 (second compound 3.16 µM) | IC50 (second compound 10 µM) | viability, T/C [3] | viability, T/C [4] | viability, T/C [7] | viability, T/C [8] | viability, T/C [11] | viability, T/C [12] | viability, T/C [15] | viability, T/C [16] | viability, T/C [19] | viability, T/C [20] | viability, T/C [21] | viability, T/C [22] | viability, T/C [25] | viability, T/C [26] | viability, T/C [29] | other results |
| --- | --- | --- | --- | --- | --- | --- | --- | --- | --- | --- | --- | --- | --- | --- | --- | --- | --- | --- | --- | --- | --- |
| CC[C@@]1(O)C(=O)OCc2c1cc1n(c2=O)Cc2cc3c(CN(C)C)c(O)ccc3nc2-1 + Cc1ccccc1N=Nc1ccc(NC(=O)c2ccnn2C)c(C)c1 | 5.02 nM | 5.48 nM | 5.01 nM | 4.59 nM | 2.08 nM | 8.84% | 6.78% | 8.71% | 7.03% | 8.48% | 8.35% | 9.81% | 7.76% | 9.21% | 7.45% | – | – | – | – | – | viability, T/C (second compound 0.1 µM, first compound 0.000316 µM): 109%; viability, T/C (second compound 0.1 µM, first compound 0.001 µM): 103%; viability, T/C [1]: 67.5%; viability, T/C [2]: 23.7%; viability, T/C (second compound 0.316 µM, first compound 0.000316 µM): 113%; viability, T/C (second compound 0.316 µM, first compound 0.001 µM): 113%; viability, T/C [5]: 74.7%; viability, T/C [6]: 23%; viability, T/C (second compound 1 µM, first compound 0.000316 µM): 117%; viability, T/C (second compound 1 µM, first compound 0.001 µM): 111%; viability, T/C [9]: 70.7%; viability, T/C [10]: 18.9%; viability, T/C (second compound 3.16 µM, first compound 0.000316 µM): 107%; viability, T/C (second compound 3.16 µM, first compound 0.001 µM): 95.4%; viability, T/C [13]: 61.1%; viability, T/C [14]: 26.5%; viability, T/C (second compound 10 µM, first compound 0.000316 µM): 54.6%; viability, T/C (second compound 10 µM, first compound 0.001 µM): 57.7%; viability, T/C [17]: 46.3%; viability, T/C [18]: 21.4% |
| COc1cc(C2c3cc4c(cc3C(OC3OC5COC(C)OC5C(O)C3O)C3COC(=O)C23)OCO4)cc(OC)c1O (stereo not given) + Cc1ccccc1N=Nc1ccc(NC(=O)c2ccnn2C)c(C)c1 | 404 nM | 415 nM | 423 nM | 290 nM | 186 nM | 101% | 115% | 120% | 107% | 96.2% | 102% | 81.4% | 71.5% | 57.4% | 63.5% | 59.6% | 19.2% | 60.2% | 17.9% | 60.8% | viability, T/C [23]: 7.36%; viability, T/C [24]: 7.36%; viability, T/C [27]: 9.41%; viability, T/C [28]: 9.17%; viability, T/C [30]: 17.3%; viability, T/C [31]: 9.27%; viability, T/C [32]: 8.44%; viability, T/C [33]: 49.5%; viability, T/C [34]: 15.3%; viability, T/C [35]: 7.76%; viability, T/C [36]: 7.73%; viability, T/C [37]: 41.1%; viability, T/C [38]: 13.5%; viability, T/C [39]: 8.01%; viability, T/C [40]: 7.22% |
| COc1cccc2c1C(=O)c1c(O)c3c(c(O)c1C2=O)CC(O)(C(=O)CO)CC3OC1CC(N)C(O)C(C)O1 (stereo not given) + Cc1ccccc1N=Nc1ccc(NC(=O)c2ccnn2C)c(C)c1 | < 31.6 nM | < 31.6 nM | < 31.6 nM | < 31.6 nM | < 31.6 nM | 15.3% | 14.2% | 16% | 14.5% | 16% | 12.7% | 15.9% | 13.5% | 13.2% | 10.1% | 2.62% | 0.35% | 3.8% | 0.52% | 2.55% | viability, T/C [23]: 1.6%; viability, T/C [24]: 1.27%; viability, T/C [27]: 1.44%; viability, T/C [28]: 1.34%; viability, T/C [30]: 0.36%; viability, T/C [31]: 1.75%; viability, T/C [32]: 1.27%; viability, T/C [33]: 2.36%; viability, T/C [34]: 0.36%; viability, T/C [35]: 1.22%; viability, T/C [36]: 0.78%; viability, T/C [37]: 1.82%; viability, T/C [38]: 0.82%; viability, T/C [39]: 1.07%; viability, T/C [40]: 1.04% |
| Nc1ncn(C2CC(O)C(CO)O2)c(=O)n1 (stereo not given) + Cc1ccccc1N=Nc1ccc(NC(=O)c2ccnn2C)c(C)c1 | 949 nM | 816 nM | 840 nM | 930 nM | > 1000 nM | 112% | 106% | 122% | 111% | 122% | 106% | 112% | 95.5% | 62.8% | 67% | 74.2% | 48.9% | 78.3% | 43.9% | 80% | viability, T/C [1]: 114%; viability, T/C [2]: 128%; viability, T/C [5]: 109%; viability, T/C [6]: 114%; viability, T/C [9]: 111%; viability, T/C [10]: 108%; viability, T/C [30]: 44.7%; viability, T/C [13]: 88.8%; viability, T/C [14]: 79.2%; viability, T/C [33]: 77.3%; viability, T/C [34]: 48.1%; viability, T/C [17]: 50.6%; viability, T/C [18]: 58.4%; viability, T/C [37]: 60.1%; viability, T/C [38]: 48.3% |
